The values that follow are results of earlier work, collected in patent publication US20110300245A1, “Topical, palatable, anti-inflammatory and analgesic for specific application to intraoral, gingival and extraoral areas correlated with, and related to, the trigeminal nerve and its nerve branches and plexus. To mitigate, attenuate or prevent migraine-type headache, cluster-type headache, …” (priority 2010, published 2011).

The structures appear in SMILES notation. Like-named read-outs stand apart in the source and are kept apart here. Where only a bound is given, the exact number is not on record here.

Assay in series [1]: not given
This is another data set of the same source.

For series [2] the following is noted: rheumatoid arthritis patients.
For series [3] the following is noted: intravesical, 213 patients.
For series [4] the following is noted: for patients with symptoms controlled within 2 weeks: added orally to the sulfasalazine/prednisolone regimen, allopurinol 50 mg or DMSO 500 mg four times a day, p<0.01.
Assay in series [5]: not given
This is another data set of the same source.

For series [6] the following is noted: in vivo.
Series [7] concerns peripheral nerve C fibers. The conditions noted are these: laboratory studies.
Assay in series [8]: not given
The source holds these as a separate data set.

Assay in series [9]: not given
This is another data set of the same source.

The subject of the next series is cell proliferation. The settings on record: in vitro.
[10] abbreviates: given with sulfasalazine 2 gm daily, p<0.05.

Regarding `C[S+](C)[O-]` [DMSO, dimethyl sulfoxide], the patients showing improvement is, setting by setting: (acute patients) 80%; (chronic patients) 60%. Moreover, in [1] (27 patients with rheumatoid arthritis), the “relief of pain in rheumatoid arthritis” value is reported as “all but four had some degree of relief of pain”. In [1] (103 patients, topical application), the pain relief entry is on record as “pain relief of varying degrees in most patients”. In addition, the “time to pain relief after application” value in series [1] (DMSO 1.0 ml, five patients with acute supraspinatus tendon pain associated with calcification) is ≤ 10 min. Besides, the symptomatic relief entry in [1] (all six patients with acute calcified supraspinatus bursitis) is listed as “Spectacular symptomatic relief”; in series [3] (majority of patients), “Significant symptomatic relief”. Also, the “recovery with normal use of the shoulder” value in series [1] (continued applications every four hours over the following 24 hour period) is “complete recovery”. For the same compound, in [2], the “effects on joint pain, range of joint motion and grip strength” value is “analgesic and anti-inflammatory effects”. Further, in [3], the “systemic or local toxicity” value is given as “no systemic or local toxicity”. In addition, the “patients with symptoms controlled within 2 weeks” value in series [4] was 84%. The “patients relapsed during 12 months of prophylactic treatment” value (from here on “patients relapsed during 12 months”) in [4] (setting [10]) is recorded as 5%. Besides, the “number of patients with normal ICP” value in series [5] (after 6 days of treatment, ten patients) is reported as 7. Also, in series [5] (intravenous every 6 h, all ten patients, ICP 40-127 mm Hg), the “ICP after 24 h” value is reported as “reduction of ICP”. Besides, the neurological outcome in series [5] (severe closed-head injury patients, intravenous) is recorded as “improves neurological outcome”. For the same compound, the edema in animals result in series [6] is “reduction of edema”. The nerve conduction result in series [7] was “blocking peripheral nerve C fibers”.

For `CC(C(=O)O)c1cccc(C(=O)c2ccccc2)c1` (stereo not shown) [Ketoprofen], the side effects result in series [8] (30-day treatment phase) was “minimal”. Also, in series [8] (30-day treatment phase, gel once daily, 20 patients, 30-day baseline 454.8, p<0.001), the “average monthly headache burden score (intensity 0-10 x duration in hours)” value is listed as 86.5. In addition, in [8] (treatment phase versus baseline), the “analgesic and headache medication intake” value is reported as “significantly reduced”.

Regarding `Oc1ncnc2[nH]ncc12` [allopurinol], the “patients with symptoms controlled within 2 weeks” value in series [4] is on record as 84%. The “patients relapsed during 12 months” value in [4] (setting [10]) is reported as 5%.

As to `O=C(O)c1cc(/N=N/c2ccc(S(=O)(=O)Nc3ccccn3)cc2)ccc1O` [sulfasoizine, sulfasalazine], the “patients relapsed during 12 months” value in [4] (sulfasalazine 2 gm daily alone) is 25%.

As to `CNS(=O)(=O)Cc1ccc2[nH]cc(CCN(C)C)c2c1` [sumatriptan], the “mean headache relief (0-10 scale)” value in series [9] (50 mg oral, at 1, 2, 4, and 24 hours after initiation of treatment) was “Significant mean headache relief”. The nausea relief entry in series [9] (50 mg oral, same post treatment time intervals (1, 2, 4, 24 hours)) is “Significant nausea relief”. Further, the “headache and nausea recurrence” value in series [9] (at 24 hours) is “some headache and nausea recurrence”.

Regarding `O=C(O)C[C@H](O)C(=O)OC[C@H]1OC(O)[C@H](O)[C@@H](O)[C@@H]1O[C@H]1O[C@H](CO)[C@@H](O)[C@H](O)[C@H]1O` (stereo partly drawn) [veracylglucan B, alpha-D-Glcp-(1-->4)-6-O-(1-L-maloyl)-alpha,-beta,-D-Glcp], in the series with cell proliferation, the “anti-inflammatory activity and effect on cell proliferation” value was “potent anti-inflammatory and anti-proliferative effects”.

On to `O=C(O)C[C@H](O)C(=O)OC[C@H]1O[C@H](O[C@H]2[C@H](O)[C@@H](O)[C@@H](O[C@H]3[C@H](O)[C@@H](O)[C@@H](O[C@H]4[C@H](O)[C@@H](O)[C@@H](O[C@H]5[C@H](O)[C@@H](O)C(O)O[C@@H]5COC(=O)[C@@H](O)CC(=O)O)O[C@@H]4COC(=O)[C@@H](O)CC(=O)O)O[C@@H]3COC(=O)[C@@H](O)CC(=O)O)O[C@@H]2COC(=O)[C@@H](O)CC(=O)O)[C@H](O)[C@@H](O)[C@@H]1O[C@H]1O[C@H](CO)[C@@H](O)[C@H](O)[C@H]1O` (stereo partly drawn) [veracylglucan C, alpha-D-Glcp-(1-->4)-tetra-[6-O-(1-L-maloyl)-alpha-D-Glcp-(1-->4)]-6-O-(1-L-maloyl)-alpha,-beta-D-Glcp], for which the “anti-inflammatory activity and effect on cell proliferation” value with cell proliferation was “significant cell proliferative and anti-inflammatory activities”.
